One compound from article PMC3830699 (2013) can be followed below.

For the test, the system named is 144 ydaO (RNA, riboswitch) GGGAAAACAAAUCGCUUAAUCUGAAAUCAGAGCGGGGGACCCAAUAGAACGGCUUUUUGCCGUUGGGGUGAAUCCUUUUUAGGUAGGGCUAACUCUCAUAUGCCCGAAUCCGUCAGCUAACCUCGUAAGCGUUCGUGAGAGGAGAU
As to the kind of experiment: in-line probing. The conditions noted are these: low millimolar; tested to 3.16 mM; taken as the shorter construct of b32.

`Nc1ncnc2c1ncn2[C@@H]1O[C@H](COP(=O)(O)OP(=O)(O)OP(=O)(O)O)[C@@H](O)[C@H]1O`: the binding entry was “weak”.
